According to ChEMBL document CHEMBL2029344, “A new class of prolylcarboxypeptidase inhibitors, part 2: the aminocyclopentanes” (Bioorg Med Chem Lett, 2012):
pIC50, pKi: −log10 of the molar value.

Experiments:
Mus musculus [1] = test: Ex-vivo inhibition of PrCP in heat inactivated 100% plasma of C57 mouse assessed as target engagement calculated as [cmpd]plasma/([cmpd]plasma + Ki (heat inactivated plasma))x100 at 30 mg/kg, po after 20 hrs by FRET analysis; type: functional; design: scale not given: the % may be the effect or the level left
[2] = Volume of distribution in mouse at 1 mg/kg, iv and 30 mg/kg, po; type: ADME, organism-based; settings: in vivo
[3] = Oral bioavailability in mouse at 30 mg/kg; type: ADME, organism-based; settings: in vivo
Mus musculus [4] = test: Dose normalized AUC in mouse at 1 mg/kg, iv and 30 mg/kg, po; type: ADME, organism-based; settings: in vivo
Mus musculus [5] = test: Ex-vivo inhibition of PrCP in heat inactivated 100% plasma of C57 mouse assessed as target engagement at 30 mg/kg, po after 20 hrs by FRET analysis; type: functional; design: scale not given: the % may be the effect or the level left
[6] = Clearance in mouse at 1 mg/kg, iv and 30 mg/kg, po; type: ADME, organism-based; settings: in vivo
[7] = Ratio of drug uptake in brain to plasma of C57 mouse at 30 mg/kg, po after 20 hrs by LC/MS analysis; type: ADME, organism-based; design: dose 30 mg/kg, route oral; settings: read-out: BPR
[8] = molecular target: T1, Lysosomal Pro-X carboxypeptidase (Mus musculus, UniProt Q7TMR0); test: Inhibition of mouse PrCP
T1 sequence (Q7TMR0 whole entry): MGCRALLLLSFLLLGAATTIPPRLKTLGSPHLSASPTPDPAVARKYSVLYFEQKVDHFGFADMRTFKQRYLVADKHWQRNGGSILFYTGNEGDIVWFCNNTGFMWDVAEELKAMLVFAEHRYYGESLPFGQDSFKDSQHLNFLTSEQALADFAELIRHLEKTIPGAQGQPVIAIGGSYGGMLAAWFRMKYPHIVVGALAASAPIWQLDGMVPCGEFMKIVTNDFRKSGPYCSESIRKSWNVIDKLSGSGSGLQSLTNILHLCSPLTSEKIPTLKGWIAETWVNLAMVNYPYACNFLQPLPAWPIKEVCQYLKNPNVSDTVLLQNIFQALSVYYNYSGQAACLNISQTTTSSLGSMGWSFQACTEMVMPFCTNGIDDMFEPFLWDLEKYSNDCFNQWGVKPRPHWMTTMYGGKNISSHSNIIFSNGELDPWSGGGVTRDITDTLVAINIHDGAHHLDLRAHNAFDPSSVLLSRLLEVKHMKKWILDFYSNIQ

[9] = Percentage unbound in 10% human plasma; type: ADME, cell-free
[10] = Percentage unbound in 10% mouse plasma; type: ADME, cell-free
Mus musculus [11] = test: Ex-vivo inhibition of po dosed mouse PrCP by FRET analysis in presence of heat inactivated 100% plasma; type: functional, organism-based
Mus musculus [12] = test: Ex-vivo inhibition of po dosed mouse PrCP by FRET analysis in absence of plasma; type: functional, organism-based
Mus musculus [13] = test: Ex-vivo inhibition of po dosed mouse PrCP by FRET analysis in presence of heat inactivated 25% plasma; type: functional, organism-based
[14] = Stability in mouse liver microsomes after 30 mins by LC/MS analysis; type: ADME, Microsome; settings: read-out: Stability
[15] = Stability in human liver microsomes after 30 mins by LC/MS analysis; type: ADME, Microsome; settings: read-out: Stability

Row | Compound | Vd [2] [L/kg] | bioavailability [3] [%] | AUC/dose (Mus musculus [4]) [µM·kg·h/mg] | clearance [6] [mL/min/kg] | Kp at 20 h [7] | pIC50 [8] | fraction unbound [9] | fraction unbound [10] | pKi (Mus musculus [11]) | pKi (Mus musculus [12]) | pKi (Mus musculus [13]) | remaining at 0.5 h [14] [%] | remaining at 0.5 h [15] [%] | Activity (Mus musculus [1]) [%] | Activity (Mus musculus [5]) [%]
1 | Cc1nc(C2CCN(C(=O)[C@@H]3CN(C(C)(C)C)C[C@H]3c3ccc(F)cc3F)CC2)n(-c2ccc(Cl)c(C)c2)n1 | 17 | 20 | 0.05 | 128 |  |  |  |  |  |  |  |  |  |  | 
2 | Cc1nc(C2CCN(C(=O)[C@@H]3C[C@H](N(C)C)C[C@H]3c3ccc(F)cc3F)CC2)n(-c2ccc(Cl)c(C)c2)n1 |  |  |  |  |  | 7.19 |  |  |  |  |  |  |  |  | 
3 | Cc1nc(C2CCN(C(=O)[C@@H]3C[C@@](C)(N(C)C)C[C@H]3c3ccc(F)cc3F)CC2)n(-c2ccc(F)c(Cl)c2)n1 |  |  |  |  |  |  | 0.32 | 0.22 | 8.96 | 8.96 | 8.96 |  |  |  | 
4 | Cc1nc(C2CCN(C(=O)[C@@H]3C[C@@](C)(N)C[C@H]3c3ccc(F)cc3F)CC2)n(-c2ccc(F)c(Cl)c2)n1 |  |  |  |  |  | 7.95 | 0.205 | 0.127 | 8.34 | 8.34 | 8.34 |  |  |  | 

More lines, main results first:

Row | Vd [2] [L/kg] | bioavailability [3] [%] | AUC/dose (Mus musculus [4]) [µM·kg·h/mg] | clearance [6] [mL/min/kg] | Kp at 20 h [7] | pIC50 [8] | fraction unbound [9] | fraction unbound [10] | pKi (Mus musculus [11]) | pKi (Mus musculus [12]) | pKi (Mus musculus [13]) | remaining at 0.5 h [14] [%] | remaining at 0.5 h [15] [%] | Compound | Activity (Mus musculus [1]) [%] | Activity (Mus musculus [5]) [%]
5 | 13 | 31 | 0.19 | 48 | 1.35 |  |  |  |  |  |  |  |  | Cc1cc(C2CCN(C(=O)[C@@H]3CN(C(C)(C)C)C[C@H]3c3ccc(F)cc3F)CC2)n(-c2cc(Cl)ccc2Cl)n1 | 99.8 | 97.7
6 |  |  |  |  |  | 7.39 | 0.22 | 0.32 |  |  |  |  |  | Cc1nc(C2CCN(C(=O)[C@@H]3C[C@@H](N(C)C)C[C@H]3c3ccc(F)cc3F)CC2)n(-c2ccc(Cl)c(C)c2)n1 |  | 
7 |  |  |  |  |  | 8.60 | 0.05 | 0.22 | 7.78 | 8.54 | 8.20 | 47 | 27 | Cc1nc(C2CCN(C(=O)[C@@H]3C[C@@](C)(N(C)C)C[C@H]3c3ccc(F)cc3F)CC2)n(-c2ccc(Cl)c(C)c2)n1 |  | 
8 |  |  |  |  |  | 7.07 | 0.076 | 0.102 | 7.13 | 7.96 | 7.57 | 72 | 78 | Cc1nc(C2CCN(C(=O)[C@@H]3C[C@@](C)(N)C[C@H]3c3ccc(F)cc3F)CC2)n(-c2ccc(Cl)c(C)c2)n1 |  | 
9 |  |  |  |  |  | 8.70 | 0.33 | 0.14 | 9.00 | 9.00 | 9.00 | 6 | 18 | Cc1nc(C2CCN(C(=O)[C@@H]3C[C@@](C)(N(C)C)C[C@H]3c3ccc(F)cc3F)CC2)n(-c2cc(Cl)ccc2Cl)n1 |  | 
10 |  |  |  |  |  | 8.39 | 0.245 | 0.091 | 8.10 | 8.43 | 8.33 | 79 | 79 | Cc1nc(C2CCN(C(=O)[C@@H]3C[C@@](C)(N)C[C@H]3c3ccc(F)cc3F)CC2)n(-c2cc(Cl)ccc2Cl)n1 |  | 
